# Measurements as given in patent publication US20220279826A1, “OFF-FLAVOR SUPPRESSING AGENT” (AJINOMOTO CO., INC., priority 2019, published 2022).
# Columns and labels:
# [1] = Sensory evaluation of off-taste suppressing effect in 0.8 wt % potassium chloride aqueous solution (Experimental Examples 1 and 2); conditions: for off-taste suppressing effect: 0.8 wt % potassium chloride aqueous solution; for intensity of off-tastes (bitter taste, metallic taste, harsh taste, astringent taste) derived from potassium chloride: potassium chloride aqueous solutions, Tables 1 to 14
# Procedure: Each compound shown in the following Tables 1 to 13 was added to a 0.8 wt % potassium chloride aqueous solution at the concentration (addition concentration) shown in the following Tables 1 to 13 to prepare each evaluation sample.
# Based on the following evaluation criteria, a panel of two experts determined by consensus the intensity of off-tastes (bitter taste, metallic taste, harsh taste, astringent taste) derived from potassium chloride in each evaluation sample, by reference to each potassium chloride aqueous solution adjusted to 0.8 wt %, 0.75 wt %, 0.7 wt %, or 0.65 wt %.
# −: intensity of the same level as potassium chloride aqueous solution with potassium chloride concentration of not less than 0.8 wt %
# +: intensity of the same level as potassium chloride aqueous solution with potassium chloride concentration of not less than 0.75 wt % and less than 0.8 wt %
# ++: intensity of the same level as potassium chloride aqueous solution with potassium chloride concentration of not less than 0.7 wt % and less than 0.75 wt %
# +++: intensity of the same level as potassium chloride aqueous solution with potassium chloride concentration of not less than 0.65 wt % and less than 0.7 wt %
# Each compound shown in the following Table 14 was added to a 0.8 wt % potassium chloride aqueous solution at the concentration (addition concentration) shown in the following Table 14 to prepare each evaluation sample.
# [2] = Sensory evaluation in potage solution with potassium chloride (Experimental Example 3); conditions: Potage solution with 0.8 wt % potassium chloride
# Procedure: (§1) As shown in the following (1) to (3) below, 0.8 wt % of potassium chloride was added to a food base powder corresponding to 0.5 wt % of sodium chloride to prepare each base solution having an off-taste derived from potassium chloride.
# Potassium chloride (0.8 g) was added to a commercially available powdered instant potage (manufactured by Ajinomoto Co., Inc., trade name “Knorr (registered trade mark) Cup Soup Potage”) (7.1 g), hot water (92.1 g) was added to dissolve the mixture to prepare a base solution (potage solution).
# (§2) Each compound shown in the following Tables 15 to 17 was added to each base solution (ramen noodle soup solution, chicken broth solution, potage solution) so as to achieve the concentration (addition concentration) shown in the following Tables 15 to 17 to prepare each evaluation sample.
# (§3) By a method similar to that in Experimental Example 1, a panel of two experts determined the intensity of off-tastes (bitter taste, metallic taste, harsh taste, astringent taste) derived from potassium chloride in each evaluation sample.
# [3] = Sensory evaluation in ramen noodle soup solution with potassium chloride (Experimental Example 3); conditions: for off-taste suppressing effect: Ramen noodle soup solution with 0.8 wt % potassium chloride; for intensity of off-tastes (bitter taste, metallic taste, harsh taste, astringent taste) derived from potassium chloride: base solutions of Tables 15 to 17 (ramen noodle soup, chicken broth, potage)
# Procedure: as §1
# Potassium chloride (0.8 g) was added to a soup powder (1.1 g) of a commercially available instant ramen noodle (manufactured by SANYO FOODS Co., Ltd., trade name “Sapporo Ichiban Shouyuaji”), hot water (98.1 g) was added to dissolve the mixture to prepare a base solution (ramen noodle soup solution).
# as §2, §3
# [4] = Sensory evaluation in chicken broth solution with potassium chloride (Experimental Example 3); conditions: chicken broth solution with 0.8 wt % potassium chloride
# Procedure: as §1
# Potassium chloride (0.8 g) was added to a commercially available powdered chicken broth mix (manufactured by Ajinomoto Co., Inc., trade name “Marutorigara Soup”) (1.0 g), hot water (98.2 g) was added to dissolve the mixture to prepare a base solution (chicken broth soup solution).
# as §2, §3
# [5] = addition concentration 1 weight ppb (0.125 weight ppm with respect to potassium chloride)
# [6] = addition concentration 5 weight ppb (0.625 weight ppm with respect to potassium chloride)
# [7] = addition concentration 10 weight ppb (1.25 weight ppm with respect to potassium chloride)
# [8] = addition concentration 50 weight ppb (6.25 weight ppm with respect to potassium chloride)
# [9] = addition concentration 100 weight ppb (12.5 weight ppm with respect to potassium chloride)
# [10] = addition concentration 500 weight ppb (62.5 weight ppm with respect to potassium chloride)
# [11] = addition concentration 10 ppb (1.25 weight ppm with respect to potassium chloride)
# [12] = addition concentration 100 ppb (12.5 weight ppm with respect to potassium chloride)
Structure (SMILES),"off-taste suppressing effect [1, 5]","off-taste suppressing effect [1, 6]","off-taste suppressing effect [1, 7]","off-taste suppressing effect [1, 8]","off-taste suppressing effect [1, 9]","off-taste suppressing effect [1, 10]",off-taste suppressing effect ([1]; addition concentration 1000 weight ppb (125 weight ppm with respect to potassium chloride)),"intensity of off-tastes (bitter taste, metallic taste, harsh taste, astringent taste) derived from potassium chloride [1]","off-taste suppressing effect [2, 11]","off-taste suppressing effect [3, 11]","intensity of off-tastes (bitter taste, metallic taste, harsh taste, astringent taste) derived from potassium chloride [3]","off-taste suppressing effect [4, 11]","off-taste suppressing effect [2, 12]","off-taste suppressing effect [3, 12]","off-taste suppressing effect [4, 12]"
"CC1=C(O)C(=O)OC1C (stereo not drawn) [4,5-dimethyl-3-hydroxy-2(5H)-furanone]",+ (intensity of the same level as potassium chloride aqueous solution with potassium chloride concentration of not less than 0.75 wt % and less than 0.8 wt %),++ (intensity of the same level as potassium chloride aqueous solution with potassium chloride concentration of not less than 0.7 wt % and less than 0.75 wt %),++ (intensity of the same level as potassium chloride aqueous solution with potassium chloride concentration of not less than 0.7 wt % and less than 0.75 wt %),+ (intensity of the same level as potassium chloride aqueous solution with potassium chloride concentration of not less than 0.75 wt % and less than 0.8 wt %),+ (intensity of the same level as potassium chloride aqueous solution with potassium chloride concentration of not less than 0.75 wt % and less than 0.8 wt %),+ (intensity of the same level as potassium chloride aqueous solution with potassium chloride concentration of not less than 0.75 wt % and less than 0.8 wt %),+ (intensity of the same level as potassium chloride aqueous solution with potassium chloride concentration of not less than 0.75 wt % and less than 0.8 wt %),decreased,++ (intensity of the same level as potassium chloride aqueous solution with potassium chloride concentration of not less than 0.7 wt % and less than 0.75 wt %),++ (intensity of the same level as potassium chloride aqueous solution with potassium chloride concentration of not less than 0.7 wt % and less than 0.75 wt %),decreased,++ (intensity of the same level as potassium chloride aqueous solution with potassium chloride concentration of not less than 0.7 wt % and less than 0.75 wt %),,,
"CC1=C(O)C(=O)C(C)O1 (stereo not drawn) [4-hydroxy-2,5-dimethyl-3(2H)-furanone]",+ (intensity of the same level as potassium chloride aqueous solution with potassium chloride concentration of not less than 0.75 wt % and less than 0.8 wt %),+ (intensity of the same level as potassium chloride aqueous solution with potassium chloride concentration of not less than 0.75 wt % and less than 0.8 wt %),++ (intensity of the same level as potassium chloride aqueous solution with potassium chloride concentration of not less than 0.7 wt % and less than 0.75 wt %),++ (intensity of the same level as potassium chloride aqueous solution with potassium chloride concentration of not less than 0.7 wt % and less than 0.75 wt %),++ (intensity of the same level as potassium chloride aqueous solution with potassium chloride concentration of not less than 0.7 wt % and less than 0.75 wt %),,,decreased,++ (intensity of the same level as potassium chloride aqueous solution with potassium chloride concentration of not less than 0.7 wt % and less than 0.75 wt %),++ (intensity of the same level as potassium chloride aqueous solution with potassium chloride concentration of not less than 0.7 wt % and less than 0.75 wt %),decreased,++ (intensity of the same level as potassium chloride aqueous solution with potassium chloride concentration of not less than 0.7 wt % and less than 0.75 wt %),,,
CC1=C(O)C(=O)CO1 [4-hydroxy-5-methyl-3(2H)-furanone],+ (intensity of the same level as potassium chloride aqueous solution with potassium chloride concentration of not less than 0.75 wt % and less than 0.8 wt %),+ (intensity of the same level as potassium chloride aqueous solution with potassium chloride concentration of not less than 0.75 wt % and less than 0.8 wt %),+ (intensity of the same level as potassium chloride aqueous solution with potassium chloride concentration of not less than 0.75 wt % and less than 0.8 wt %),++ (intensity of the same level as potassium chloride aqueous solution with potassium chloride concentration of not less than 0.7 wt % and less than 0.75 wt %),++ (intensity of the same level as potassium chloride aqueous solution with potassium chloride concentration of not less than 0.7 wt % and less than 0.75 wt %),+ (intensity of the same level as potassium chloride aqueous solution with potassium chloride concentration of not less than 0.75 wt % and less than 0.8 wt %),,decreased,,,decreased,,++ (intensity of the same level as potassium chloride aqueous solution with potassium chloride concentration of not less than 0.7 wt % and less than 0.75 wt %),++ (intensity of the same level as potassium chloride aqueous solution with potassium chloride concentration of not less than 0.7 wt % and less than 0.75 wt %),++ (intensity of the same level as potassium chloride aqueous solution with potassium chloride concentration of not less than 0.7 wt % and less than 0.75 wt %)
